Results: US20130259842A1, “STABLE REPROGRAMMED CELLS” (priority 2010, published 2013)

Tested on: piPSC lines
Test: Chemical reprogramming of stable intermediate cell lines
Assay type: cell-based, mouse
Protocol: A subset of piPS cell lines were treated with RepSox (E-616452) (25 μM), AZA (500 μM), or both for 48 hours. For 2i treatment, CHIR99021 (Stemgent) was used at 3 μM and PD0325901 (Stemgent) was used at 1 μM. Oct4::GFP+ colonies were scored 12 days after the beginning of chemical treatment. Treatments were performed in mES media containing FBS unless otherwise noted.
10× bright field image merged with Oct4::GFP. The concentration of DMSO equals 0.2%.
piPSC or iPSC were plated on irradiated feeders or 0.1% gelatin, and grown in mES media treated with RepSox (E-616452) (25 μM), AZA (500 μM), or both for 48 hours. For 2i treatment, CHIR99021 (Stemgent) was used at 3 μM and PD0325901 (Stemgent) was used at 1 μM. Oct4::GFP+ colonies were scored 12 days after the beginning of chemical treatment. Treatments were performed in mES media containing FBS unless otherwise noted.
To examine whether multiple piPSC lines could be further reprogrammed to a fully pluripotent state, piPSC were cultured in the presence of RepSox, a known inhibitor of Tgf-β signalling previously described to reprogram intermediate cells (Ichida et al., 2009), 2i-treatment, combined chemical inhibition of Mek/Erk and GSK3 signaling (Silva et at, 2008), or the DNA methyl-transferase inhibitor 5′AzaC.

For `Cc1cccc(-c2[nH]ncc2-c2ccc3ncccc3n2)n1` [RepSox], the “reprogramming scored by presence of Oct4::GFP positive colonies” value (25 μM RepSox, 2i = CHIR99021 3 μM + PD0325901 1 μM, exposed 48 hours, scored 12 days later) was “a subset of piPSC lines reprogram” and the “further reprogramming to fully reprogrammed iPS cells as determined by the expression of Nanog” value (25 μM for 48 hours, piPSC lines D, F, G, and E, Nanog RT-PCR at 96 hours) was “underwent further reprogramming to fully reprogrammed iPS cells”.
